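Cells were grown in 96-well plates and exposed to each compound for 48 hours at five concentrations; endpoints were interpolated linearly between bracketing concentrations, or set to the highest concentration if not reached. GI50 = concentration required for 50% inhibition of growth.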 Active and inactive are the calls of the source. No stated cut-off is given here; in the data, active = GI50 up to about 1.1 µM and inactive = higher.
Key:
Experiment in all cases: growth of human tumour cells (NCI), 48 h
IGROV-1 = system: IGROV-1
OVCAR-3 = system: OVCAR-3
KM12 = system: KM12
SK-MEL-28 = system: SK-MEL-28
MOLT-4 = system: MOLT-4
LOX IMVI = system: LOX IMVI
UO-31 = system: UO-31
COLO 205 = system: COLO 205
SF-268 = system: SF-268
HOP-62 = system: HOP-62
SK-OV-3 = system: SK-OV-3
OVCAR-8 = system: OVCAR-8
NCI-H522 = system: NCI-H522
HT-29 = system: HT-29
SK-MEL-2 = system: SK-MEL-2
CAKI-1 = system: CAKI-1
SK-MEL-5 = system: SK-MEL-5

Measured: GI50

C[C@]12CC[C@@H]3c4ccccc4CC[C@H]3[C@@H]1CC[C@@H]2O
inactive: IGROV-1 > 100 µM | OVCAR-3 > 100 µM | KM12 68.7 µM | SK-MEL-28 > 100 µM | MOLT-4 45.5 µM | LOX IMVI 77.4 µM | UO-31 39.7 µM | COLO 205 73.8 µM | SF-268 > 100 µM | HOP-62 > 100 µM | SK-OV-3 > 100 µM | OVCAR-8 > 100 µM | NCI-H522 49.2 µM

CCC1CN2CCc3cc(OC)c(OC)cc3C2CC1CC1c2cc(OC)c(OC)cc2CCN1C(=O)C1CCCN1C(=O)OCc1ccccc1 (stereo not drawn)
inactive: HT-29 14.1 µM | IGROV-1 15.9 µM | OVCAR-3 16.2 µM | KM12 16.3 µM | SK-MEL-28 16.9 µM | SK-MEL-2 17.2 µM | LOX IMVI 15 µM | UO-31 12.7 µM | CAKI-1 20.3 µM | SF-268 17.1 µM | HOP-62 16.2 µM | SK-MEL-5 15.5 µM | OVCAR-8 17.1 µM

O=[N+]([O-])C1(CO)COC(CCc2ccccc2)OC1 (stereo not drawn)
inactive: HT-29 > 100 µM | IGROV-1 > 100 µM | OVCAR-3 > 100 µM | KM12 > 100 µM | SK-MEL-28 > 100 µM | MOLT-4 > 100 µM | SK-MEL-2 > 100 µM | LOX IMVI > 100 µM | UO-31 > 100 µM | HOP-62 > 100 µM | SK-OV-3 > 100 µM | SK-MEL-5 > 100 µM | OVCAR-8 > 100 µM | NCI-H522 > 100 µM

CC(O)c1ccc(C(O)/C(=N\NC(=O)c2ccncc2)c2nc3ccc([N+](=O)[O-])cc3nc2O)cc1 (stereo not drawn)
inactive: HT-29 96.2 µM | IGROV-1 > 100 µM | OVCAR-3 > 100 µM | KM12 49 µM | SK-MEL-28 > 100 µM | MOLT-4 > 100 µM | LOX IMVI 30 µM | UO-31 > 100 µM | CAKI-1 52.8 µM | COLO 205 > 100 µM | SF-268 > 100 µM | HOP-62 > 100 µM | SK-OV-3 > 100 µM | SK-MEL-5 > 100 µM | OVCAR-8 > 100 µM | NCI-H522 19.8 µM

CC(C)C1CC2C(=O)N(c3ccccc3)C(=O)C2c2[nH]c3ccccc3c21 (stereo not drawn)
inactive: HT-29 22.9 µM | IGROV-1 34.5 µM | OVCAR-3 5.78 µM | KM12 9.91 µM | SK-MEL-28 23.4 µM | MOLT-4 11.2 µM | SK-MEL-2 35.2 µM | UO-31 17.3 µM | CAKI-1 5.68 µM | HOP-62 29.2 µM | SK-OV-3 20.5 µM | SK-MEL-5 73.8 µM | OVCAR-8 7.24 µM

COc1c(Br)cc(Br)c(OC)c1-c1ccc[nH]1
inactive: HT-29 38.8 µM | IGROV-1 53.6 µM | OVCAR-3 > 100 µM | KM12 > 100 µM | SK-MEL-28 > 100 µM | MOLT-4 46.8 µM | SK-MEL-2 45.3 µM | LOX IMVI > 100 µM | UO-31 43.3 µM | CAKI-1 13.3 µM | COLO 205 > 100 µM | SF-268 > 100 µM | HOP-62 > 100 µM | SK-OV-3 > 100 µM | SK-MEL-5 > 100 µM | OVCAR-8 > 100 µM | NCI-H522 55.1 µM

COc1ccc(C(=O)C(c2ccc(OC)cc2)C2(O)C(=O)Nc3c2ccc(Cl)c3C)cc1 (stereo not drawn)
inactive: HT-29 > 100 µM | IGROV-1 > 100 µM | OVCAR-3 > 100 µM | KM12 > 100 µM | SK-MEL-28 > 100 µM | MOLT-4 > 100 µM | SK-MEL-2 > 100 µM | LOX IMVI 91.2 µM | UO-31 64.6 µM | COLO 205 > 100 µM | SF-268 > 100 µM | HOP-62 > 100 µM | SK-OV-3 > 100 µM | SK-MEL-5 > 100 µM | OVCAR-8 > 100 µM | NCI-H522 > 100 µM

COc1ccc(OC)c(NC(=O)C(=O)CC(=O)c2sc(-n3nc(-c4ccccc4)cc3-c3ccccc3)nc2C)c1
inactive: HT-29 > 100 µM | IGROV-1 > 100 µM | OVCAR-3 > 100 µM | KM12 > 100 µM | MOLT-4 > 100 µM | SK-MEL-2 > 100 µM | LOX IMVI > 100 µM | UO-31 > 100 µM | CAKI-1 > 100 µM | COLO 205 > 100 µM | HOP-62 > 100 µM | SK-OV-3 > 100 µM | OVCAR-8 > 100 µM | NCI-H522 > 100 µM

CCOC(=O)C1CCCCN1C(=O)OCc1ccccc1 (stereo not drawn)
inactive: HT-29 > 100 µM | OVCAR-3 > 100 µM | KM12 > 100 µM | SK-MEL-28 > 100 µM | MOLT-4 > 100 µM | SK-MEL-2 > 100 µM | UO-31 99.8 µM | CAKI-1 > 100 µM | SF-268 > 100 µM | HOP-62 > 100 µM | SK-OV-3 > 100 µM | SK-MEL-5 > 100 µM | OVCAR-8 > 100 µM | NCI-H522 > 100 µM

CC(C)(C)NC(=O)NC12CC3CC(CC(F)(C3)C1)C2
inactive: HT-29 > 100 µM | IGROV-1 > 100 µM | OVCAR-3 > 100 µM | KM12 > 100 µM | SK-MEL-28 > 100 µM | MOLT-4 > 100 µM | SK-MEL-2 > 100 µM | LOX IMVI > 100 µM | UO-31 > 100 µM | COLO 205 > 100 µM | HOP-62 > 100 µM | SK-OV-3 > 100 µM | OVCAR-8 > 100 µM | NCI-H522 > 100 µM

CC(=O)Nc1ccccc1-c1nc2ccccc2nc1-c1ccccc1
inactive: HT-29 > 100 µM | IGROV-1 > 100 µM | OVCAR-3 > 100 µM | KM12 > 100 µM | SK-MEL-28 > 100 µM | MOLT-4 > 100 µM | SK-MEL-2 > 100 µM | UO-31 54.7 µM | CAKI-1 > 100 µM | COLO 205 > 100 µM | HOP-62 > 100 µM | SK-OV-3 > 100 µM | OVCAR-8 > 100 µM

CC(C)(C)C(=O)OCC(COC(=O)C(C)(C)C)[N+](=O)[O-]
inactive: HT-29 > 100 µM | IGROV-1 > 100 µM | OVCAR-3 > 100 µM | KM12 > 100 µM | SK-MEL-28 > 100 µM | MOLT-4 80.2 µM | SK-MEL-2 > 100 µM | LOX IMVI > 100 µM | UO-31 > 100 µM | CAKI-1 > 100 µM | COLO 205 57.1 µM | SF-268 > 100 µM | SK-OV-3 > 100 µM | OVCAR-8 > 100 µM | NCI-H522 19.1 µM

CCSC(SCC)c1cc2c(cc1Br)OCO2
inactive: HT-29 16.8 µM | IGROV-1 55.8 µM | OVCAR-3 22.9 µM | KM12 35.6 µM | SK-MEL-28 33.2 µM | MOLT-4 11.9 µM | SK-MEL-2 18.9 µM | LOX IMVI 16.2 µM | UO-31 20.8 µM | COLO 205 15.2 µM | SF-268 35 µM | HOP-62 60.3 µM | SK-OV-3 25.2 µM | SK-MEL-5 17.5 µM | OVCAR-8 31.3 µM | NCI-H522 24 µM

Reference: ChEMBL document CHEMBL1201862, “PubChem BioAssay data set” (2004)
